Measurements as given in article PMC5218480 (PLoS ONE, 2017).

Test system: MV-4-11 cells
Assay: Gene expression microarray analysis (Affymetrix PrimeView) and GSEA
Format: cell-based, human
Set-up: RFU PODN (11730768_x_at) / Fold change /veh PODN (11730768_x_at) / RFU LINC00158 (11744669_a_at) / Fold change /veh LINC00158 (11744669_a_at) / RFU DUSP10 (11751237_a_at) / Fold change /veh DUSP10 (11751237_a_at) / RFU ID3 (11757404_x_at) / Fold change /veh ID3 (11757404_x_at) / RFU PLEKHG5 (11737974_s_at) / Fold change /veh PLEKHG5 (11737974_s_at) / RFU LRRC4B (11730491_at) / Fold change /veh LRRC4B (11730491_at) / RFU GIMAP4 (11747438_a_at) / Fold change /veh GIMAP4 (11747438_a_at) / RFU KRT8 (11758183_x_at) / Fold change /veh KRT8 (11758183_x_at) / RFU CNN1 (11734310_a_at) / Fold change /veh CNN1 (11734310_a_at) / RFU VPS37D (11726825_at) / Fold change /veh VPS37D (11726825_at) / RFU C10orf10 (11716522_x_at) / Fold change /veh C10orf10 (11716522_x_at) / RFU KIR2DL2 /// KIR2DL4 /// KIR2DL5A /// KIR2DL5B /// KIR2DS1 /// KIR2DS2 /// KIR2DS3 /// KIR2DS4 /// KIR3DL3 /// KIR3DL3 /// KIR3DS1 (11738374_at) / Fold change /veh KIR2DL2 /// KIR2DL4 /// KIR2DL5A /// KIR2DL5B /// KIR2DS1 /// KIR2DS2 /// KIR2DS3 /// KIR2DS4 /// KIR3DL3 /// KIR3DL3 /// KIR3DS1 (11738374_at) / RFU C1QL1 (11718748_at) / Fold change /veh C1QL1 (11718748_at) / RFU TMPRSS4 (11747572_a_at) / Fold change /veh TMPRSS4 (11747572_a_at) / RFU HAMP (11756126_x_at) / Fold change /veh HAMP (11756126_x_at) / RFU RNFT2 (11725882_a_at) / Fold change /veh RNFT2 (11725882_a_at) / RFU NR4A2 (11747474_a_at) / Fold change /veh NR4A2 (11747474_a_at) / RFU ABCC12 (11746883_a_at) / Fold change /veh ABCC12 (11746883_a_at) / RFU TMEM136 (11760407_x_at) / Fold change /veh TMEM136 (11760407_x_at) / RFU CLDN22 /// WWC2 (11732394_at) / Fold change /veh CLDN22 /// WWC2 (11732394_at) / RFU HLA-DPB1 (11760878_x_at) / Fold change /veh HLA-DPB1 (11760878_x_at) / RFU SPINT1 (11716480_a_at) / Fold change /veh SPINT1 (11716480_a_at) / RFU GAP43 (11754022_s_at) / Fold change /veh GAP43 (11754022_s_at) / RFU A4GNT (11735810_at) / Fold change /veh A4GNT (11735810_at) / RFU PRB3 (11715151_x_at) / Fold change /veh PRB3 (11715151_x_at) / RFU TUBB4B (11761932_at) / Fold change /veh TUBB4B (11761932_at) / RFU CAPN14 (11732068_a_at) / Fold change /veh CAPN14 (11732068_a_at) / RFU TMCC2 (11721928_a_at) / Fold change /veh TMCC2 (11721928_a_at) / RFU IRGQ (11745062_a_at) / Fold change /veh IRGQ (11745062_a_at) / RFU FAM174B (11720279_a_at) / Fold change /veh FAM174B (11720279_a_at) / RFU TMPRSS4 (11748680_a_at) / Fold change /veh TMPRSS4 (11748680_a_at) / RFU FAM212B (11763350_a_at) / Fold change /veh FAM212B (11763350_a_at) / RFU PLEKHG5 (11743358_a_at) / Fold change /veh PLEKHG5 (11743358_a_at) / RFU ZSCAN30 (11745921_a_at) / Fold change /veh ZSCAN30 (11745921_a_at) / RFU CMKLR1 (11741424_a_at) / Fold change /veh CMKLR1 (11741424_a_at) / RFU LOC101060620 /// MAPK8IP1 (11723275_at) / Fold change /veh LOC101060620 /// MAPK8IP1 (11723275_at) / RFU SPTSSB (11747773_x_at) / Fold change /veh SPTSSB (11747773_x_at) / RFU PRSS12 (11739890_at) / Fold change /veh PRSS12 (11739890_at) / RFU BIN1 (11741810_x_at) / Fold change /veh BIN1 (11741810_x_at) / RFU WNT11 (11732464_a_at) / Fold change /veh WNT11 (11732464_a_at) / RFU C10orf10 (11716521_a_at) / Fold change /veh C10orf10 (11716521_a_at) / RFU C5orf56 (11738089_at) / Fold change /veh C5orf56 (11738089_at) / RFU CYB561 (11721691_x_at) / Fold change /veh CYB561 (11721691_x_at) / RFU ANKRD19P (11752326_a_at) / Fold change /veh ANKRD19P (11752326_a_at) / RFU OR2T12 /// OR2T33 /// OR2T8 (11738714_s_at) / Fold change /veh OR2T12 /// OR2T33 /// OR2T8 (11738714_s_at) / RFU VCAN (11748164_a_at) / Fold change /veh VCAN (11748164_a_at) / RFU JSRP1 (11732532_at) / Fold change /veh JSRP1 (11732532_at) / RFU KRTAP10-11 (11738290_x_at) / Fold change /veh KRTAP10-11 (11738290_x_at) / RFU MYO3A (11730013_a_at) / Fold change /veh MYO3A (11730013_a_at) / RFU EBF3 (11725865_a_at) / Fold change /veh EBF3 (11725865_a_at) / RFU CAMK2N1 (11719241_x_at) / Fold change /veh CAMK2N1 (11719241_x_at) / RFU C5orf56 (11738088_a_at) / Fold change /veh C5orf56 (11738088_a_at) / RFU OLFML3 (11715873_a_at) / Fold change /veh OLFML3 (11715873_a_at) / RFU LOC100653217 /// NTM (11731650_a_at) / Fold change /veh LOC100653217 /// NTM (11731650_a_at) / RFU MAPK11 (11762145_a_at) / Fold change /veh MAPK11 (11762145_a_at) / RFU FIZ1 (11724087_x_at) / Fold change /veh FIZ1 (11724087_x_at) / RFU OASL (11726364_x_at) / Fold change /veh OASL (11726364_x_at) / RFU SOX15 (11748057_x_at) / Fold change /veh SOX15 (11748057_x_at) / RFU CD79A (11719716_a_at) / Fold change /veh CD79A (11719716_a_at) / RFU HIST1H1D (11736915_at) / Fold change /veh HIST1H1D (11736915_at) / RFU CASKIN2 (11723855_a_at) / Fold change /veh CASKIN2 (11723855_a_at) / RFU LOC730098 (11760151_x_at) / Fold change /veh LOC730098 (11760151_x_at) / RFU OR4N2 (11742367_at) / Fold change /veh OR4N2 (11742367_at) / RFU PRRT2 (11749266_a_at) / Fold change /veh PRRT2 (11749266_a_at) / RFU SNX32 (11753110_a_at) / Fold change /veh SNX32 (11753110_a_at) / RFU CDHR5 (11726645_a_at) / Fold change /veh CDHR5 (11726645_a_at) / RFU RCAN1 (11760418_a_at) / Fold change /veh RCAN1 (11760418_a_at) / RFU FAM167A (11723789_a_at) / Fold change /veh FAM167A (11723789_a_at) / RFU FAM26E (11764081_at) / Fold change /veh FAM26E (11764081_at) / RFU ISYNA1 (11749810_s_at) / Fold change /veh ISYNA1 (11749810_s_at) / RFU ACY1 (11761880_at) / Fold change /veh ACY1 (11761880_at) / RFU 11764098_at / Fold change /veh 11764098_at / RFU SAMD14 (11745864_x_at) / Fold change /veh SAMD14 (11745864_x_at) / RFU NPB (11741838_a_at) / Fold change /veh NPB (11741838_a_at) / RFU TMPRSS6 (11731388_a_at) / Fold change /veh TMPRSS6 (11731388_a_at) / RFU KRTAP10-2 (11738614_at) / Fold change /veh KRTAP10-2 (11738614_at) / RFU ARHGAP8 /// PRR5-ARHGAP8 (11727945_x_at) / Fold change /veh ARHGAP8 /// PRR5-ARHGAP8 (11727945_x_at) / RFU KRTAP5-7 /// NADSYN1 (11734609_at) / Fold change /veh KRTAP5-7 /// NADSYN1 (11734609_at) / RFU RASL12 (11751679_a_at) / Fold change /veh RASL12 (11751679_a_at) / RFU CDKN2B (11736163_a_at) / Fold change /veh CDKN2B (11736163_a_at) / RFU PRF1 (11729649_at) / Fold change /veh PRF1 (11729649_at) / RFU, ZNF638 /// ZNF638-IT1 / Fold change vs veh, ZNF638 /// ZNF638-IT1 / RFU, PANK3 / Fold change vs veh, PANK3 / RFU, SH3YL1 / Fold change vs veh, SH3YL1 / RFU, ZEB2 / Fold change vs veh, ZEB2 / RFU, NRIP1 / Fold change vs veh, NRIP1 / RFU, PTTG1IP / Fold change vs veh, PTTG1IP / RFU, CAPN2 / Fold change vs veh, CAPN2 / RFU, MED14 / Fold change vs veh, MED14 / RFU, SNORA58 / Fold change vs veh, SNORA58 / RFU, C1orf63 / Fold change vs veh, C1orf63 / RFU, LRRFIP1 / Fold change vs veh, LRRFIP1 / RFU, NDUFAF7 / Fold change vs veh, NDUFAF7 / RFU, SLC12A2 / Fold change vs veh, SLC12A2 / RFU, IBTK / Fold change vs veh, IBTK / RFU, ESF1 / Fold change vs veh, ESF1 / Fold change vs veh, TMEM50B / RFU, TAOK1 / Fold change vs veh, TAOK1 / RFU, ACBD3 / Fold change vs veh, ACBD3 / RFU, TMA16 / Fold change vs veh, TMA16 / RFU, RWDD3 / Fold change vs veh, RWDD3 / RFU, BCAT1 / Fold change vs veh, BCAT1 / RFU, EDEM3 / Fold change vs veh, EDEM3 / RFU, TMEM33 / Fold change vs veh, TMEM33 / RFU, WDR75 / Fold change vs veh, WDR75 / RFU, AHCTF1 / Fold change vs veh, AHCTF1 / RFU, TFRC / Fold change vs veh, TFRC / RFU, ZDHHC17 / Fold change vs veh, ZDHHC17 / RFU, NOM1 / Fold change vs veh, NOM1 / RFU, ARL8B / Fold change vs veh, ARL8B / RFU, ZBTB11 / Fold change vs veh, ZBTB11 / RFU, TAMM41 / Fold change vs veh, TAMM41 / RFU, KIAA1704 /// LOC100996395 / Fold change vs veh, KIAA1704 /// LOC100996395 / RFU, ING1 / Fold change vs veh, ING1 / RFU, TRMT61B / Fold change vs veh, TRMT61B / RFU, FUBP3 / Fold change vs veh, FUBP3 / RFU, TP53 / Fold change vs veh, TP53 / RFU, TNKS2 / Fold change vs veh, TNKS2 / RFU, ZFP14 / Fold change vs veh, ZFP14 / RFU, ACTR2 / Fold change vs veh, ACTR2 / RFU, PPP3R1 / Fold change vs veh, PPP3R1 / RFU, PIK3R1 / Fold change vs veh, PIK3R1 / RFU, HNRNPA1 / Fold change vs veh, HNRNPA1 / RFU, RNF170 / Fold change vs veh, RNF170 / RFU, ZNF28 / Fold change vs veh, ZNF28 / RFU, RNGTT / Fold change vs veh, RNGTT / RFU, OGT / Fold change vs veh, OGT / RFU, BRD1 / Fold change vs veh, BRD1 / RFU, MARS / Fold change vs veh, MARS / RFU, ZNF655 / Fold change vs veh, ZNF655 / RFU, FAHD1 / Fold change vs veh, FAHD1 / RFU, BDP1 / Fold change vs veh, BDP1 / RFU, LRRCC1 / Fold change vs veh, LRRCC1 / RFU, ARID1A / Fold change vs veh, ARID1A / RFU, ZNF146 / Fold change vs veh, ZNF146 / RFU, ZNF330 / Fold change vs veh, ZNF330 / RFU, GPN3 / Fold change vs veh, GPN3 / RFU, C9orf123 / Fold change vs veh, C9orf123 / RFU, N4BP2L2 / Fold change vs veh, N4BP2L2 / RFU, ARFIP1 / Fold change vs veh, ARFIP1 / RFU, FAM179B / Fold change vs veh, FAM179B / RFU, BCL10 / Fold change vs veh, BCL10 / RFU, UHRF1BP1L / Fold change vs veh, UHRF1BP1L / RFU, BET1 / Fold change vs veh, BET1 / RFU, CNOT2 / Fold change vs veh, CNOT2 / RFU, ZNF268 / Fold change vs veh, ZNF268 / Fold change vs veh, ZNF507 / RFU, DGCR2 / Fold change vs veh, DGCR2 / RFU, WDSUB1 / Fold change vs veh, WDSUB1 / Fold change vs veh, HSP90B1 /// MIR3652 / RFU, ADSS / Fold change vs veh, ADSS / RFU, GK / Fold change vs veh, GK / RFU, ZNF148 / Fold change vs veh, ZNF148 / RFU, TAF9 / Fold change vs veh, TAF9 / RFU, SLC1A5 / Fold change vs veh, SLC1A5 / RFU, SLMO2 / Fold change vs veh, SLMO2 / RFU, ABCC4 / Fold change vs veh, ABCC4 / RFU, LOC101060439 /// RAP1B / Fold change vs veh, LOC101060439 /// RAP1B / RFU, RFX7 / Fold change vs veh, RFX7 / RFU, GTPBP10 / Fold change vs veh, GTPBP10 / RFU, CNEP1R1 / Fold change vs veh, CNEP1R1 / RFU, BIVM-ERCC5 /// ERCC5 / Fold change vs veh, BIVM-ERCC5 /// ERCC5 / RFU, ILF3 / Fold change vs veh, ILF3 / RFU 11762660_at / Fold change /veh 11762660_at / RFU VCAN (11757783_s_at) / Fold change /veh VCAN (11757783_s_at) / RFU DDX43 (11728927_at) / Fold change /veh DDX43 (11728927_at) / RFU KRT8 (11758188_x_at) / Fold change /veh KRT8 (11758188_x_at) / RFU NKD1 (11759106_at) / Fold change /veh NKD1 (11759106_at) / RFU SRD5A1 (11742802_a_at) / Fold change /veh SRD5A1 (11742802_a_at) / RFU TPSAB1 /// TPSB2 (11721975_s_at) / Fold change /veh TPSAB1 /// TPSB2 (11721975_s_at) / RFU GSTM3 (11746129_a_at) / Fold change /veh GSTM3 (11746129_a_at) / RFU IL23R (11737362_x_at) / Fold change /veh IL23R (11737362_x_at) / RFU TMEM51 (11727254_a_at) / Fold change /veh TMEM51 (11727254_a_at) / RFU PIWIL2 (11732686_x_at) / Fold change /veh PIWIL2 (11732686_x_at) / RFU ORM1 (11744905_x_at) / Fold change /veh ORM1 (11744905_x_at) / RFU CCDC152 (11743942_at) / Fold change /veh CCDC152 (11743942_at) / RFU ECM1 (11717891_a_at) / Fold change /veh ECM1 (11717891_a_at) / RFU IL23R (11748794_a_at) / Fold change /veh IL23R (11748794_a_at) / RFU TNFAIP8L3 (11732012_x_at) / Fold change /veh TNFAIP8L3 (11732012_x_at) / RFU MBOAT4 (11741988_at) / Fold change /veh MBOAT4 (11741988_at) / RFU 11764193_at / Fold change /veh 11764193_at / RFU TMEM53 (11763286_at) / Fold change /veh TMEM53 (11763286_at) / RFU MAGEB2 (11727129_at) / Fold change /veh MAGEB2 (11727129_at) / RFU TMEM200A (11744735_a_at) / Fold change /veh TMEM200A (11744735_a_at) / RFU CCDC152 (11751479_a_at) / Fold change /veh CCDC152 (11751479_a_at) / RFU FAM211A (11726209_a_at) / Fold change /veh FAM211A (11726209_a_at) / RFU RGS16 (11746705_a_at) / Fold change /veh RGS16 (11746705_a_at) / RFU VCAN (11755009_s_at) / Fold change /veh VCAN (11755009_s_at) / RFU RHOB (11743442_s_at) / Fold change /veh RHOB (11743442_s_at) / RFU RGS16 (11720943_a_at) / Fold change /veh RGS16 (11720943_a_at) / RFU RGS16 (11720944_at) / Fold change /veh RGS16 (11720944_at) / RFU, VPS4B / Fold change vs veh, VPS4B / RFU, CREB1 / Fold change vs veh, CREB1 / RFU, DNAJC13 / Fold change vs veh, DNAJC13 / RFU, GNAQ / Fold change vs veh, GNAQ / RFU, CDK5R1 / Fold change vs veh, CDK5R1 / RFU, ZRANB3 / Fold change vs veh, ZRANB3 / RFU, CUL4A / Fold change vs veh, CUL4A / RFU, CCNY / Fold change vs veh, CCNY / RFU, UFL1 / Fold change vs veh, UFL1 / RFU, COG3 / Fold change vs veh, COG3 / RFU, DIAPH2 / Fold change vs veh, DIAPH2 / RFU, SKA2 / Fold change vs veh, SKA2 / RFU, AFF3 / Fold change vs veh, AFF3 / RFU, LMF1 / Fold change vs veh, LMF1 / RFU, IPO11 / Fold change vs veh, IPO11 / RFU, DFFB / Fold change vs veh, DFFB / RFU, FOXP1 / Fold change vs veh, FOXP1 / RFU, CARD8 / Fold change vs veh, CARD8 / RFU, STRN3 / Fold change vs veh, STRN3 / RFU, ADK / Fold change vs veh, ADK / RFU, RASSF2 / Fold change vs veh, RASSF2 / RFU, WIPF1 / Fold change vs veh, WIPF1 / RFU, LARP1B / Fold change vs veh, LARP1B / RFU, RASA1 / Fold change vs veh, RASA1 / RFU, RB1 / Fold change vs veh, RB1 / RFU, PPFIA1 / Fold change vs veh, PPFIA1 / RFU, MAT2A / Fold change vs veh, MAT2A / RFU, CCT5 / Fold change vs veh, CCT5 / RFU, WDR92 / Fold change vs veh, WDR92 / RFU, CUX1 / Fold change vs veh, CUX1 / RFU, TTC7A / Fold change vs veh, TTC7A / RFU, TMEM135 / Fold change vs veh, TMEM135 / RFU, DEPTOR / Fold change vs veh, DEPTOR / RFU, CPM / Fold change vs veh, CPM / RFU, DNAJB6 / Fold change vs veh, DNAJB6 / RFU, CACNA2D3 / Fold change vs veh, CACNA2D3 / RFU, DTX4 / Fold change vs veh, DTX4 / RFU, TFCP2 / Fold change vs veh, TFCP2 / RFU, GMCL1 /// GMCL1P1 / Fold change vs veh, GMCL1 /// GMCL1P1 / RFU, AEBP2 / Fold change vs veh, AEBP2 / RFU, SNHG1 /// SNORD22 /// SNORD25 /// SNORD26 /// SNORD27 /// SNORD28 /// SNORD29 /// SNORD31 / Fold change vs veh, SNHG1 /// SNORD22 /// SNORD25 /// SNORD26 /// SNORD27 /// SNORD28 /// SNORD29 /// SNORD31 / Fold change (Aza/veh), C12orf56 (ProbeSet 11735607_a_at) / Fold change (ACY-1035/veh), C12orf56 (ProbeSet 11735607_a_at) / Fold change (Aza/veh), FGFR1OP (ProbeSet 11751329_s_at) / Fold change (ACY-1035/veh), FGFR1OP (ProbeSet 11751329_s_at) / Fold change (Aza/veh), VPS36 (ProbeSet 11739960_a_at) / Fold change (ACY-1035/veh), VPS36 (ProbeSet 11739960_a_at) / RFU SYPL1 (11715823_x_at) / Fold change /veh SYPL1 (11715823_x_at) / RFU IGFBP7 (11715501_s_at) / Fold change /veh IGFBP7 (11715501_s_at) / RFU REEP3 (11722064_at) / Fold change /veh REEP3 (11722064_at) / RFU IGLL1 (11728026_x_at) / Fold change /veh IGLL1 (11728026_x_at): dose or concentration left out as unconfirmed
Settings: MV-4-11 cells, 48 hours

With `Nc1ncn([C@@H]2O[C@H](CO)[C@@H](O)[C@H]2O)c(=O)n1` [azacitidine] the “Fold change /veh SYPL1 (11715823_x_at)” value was 0.82.
